Patent US20250262214A1, “INTERMITTENT DOSING REGIMEN FOR AZENOSERTIB IN TREATING CANCER” (Zeno Management, Inc., priority 2022, published 2025)
“Also recorded” adds a separate entry of the source.

How the values were obtained:
[1] = test system: human ovarian cancer SKOV3; test: Human ovarian cancer SKOV3 animal model, tumor volume; format: in vivo; conditions: 80 mg/kg 3 cycles 5 days on/2 days off vs continuous 60 mg/kg, 21 days
Procedure: In an exemplary human ovarian cancer SKOV3 animal model, Azenosertib was administered at a continuous dose of 60 mg/kg or at an intermittent dosing of 80 mg/kg at 3 cycles of 5 days on/2 days off (5/2).

[2] = test system: non-small cell lung carcinoma (NSCLC) A427; test: Non-small cell lung carcinoma (NSCLC) A427 model, tumor volume and body weight; format: in vivo, human
Procedure: In an exemplary non-small cell lung carcinoma (NSCLC) A427 model, Azenosertib was administered at a higher intermittent dose than a corresponding lower continuous dose. For example, Azenosertib was administered at 56 mg/kg in 4 dosing cycles of 5 days on/2 days off (5/2) and compared with a lower continuous dose of 40 mg/kg. Similarly, 112 mg/kg of Azenosertib in 4 dosing cycles of 5 days on/2 days off was compared with a lower continuous dose of 80 mg/kg.
The tumor volume was measured (FIG. 1C) as well as body weight (FIG. 1D) for 28 days post initiation of treatment.
In an exemplary non-small cell lung carcinoma (NSCLC) A427 model, Azenosertib was administered at a higher intermittent dose than a corresponding lower continuous dose. For example, Azenosertib was administered at 100 mg/kg in 4 dosing cycles of 4 days on/3 days off (4/3) and compared with a lower continuous dose of 60 mg/kg.
Change in tumor volume over 25 days post tumor initiation is shown in FIG. 1E, while corresponding change in body weight during treatment is shown in FIG. 1F.

[3] = test system: breast ductal carcinoma HCC1569; test: Breast ductal carcinoma HCC1569 model, tumor volume; format: in vivo, human
Procedure: In an exemplary breast ductal carcinoma HCC1569 model, Azenosertib was administered at a dose of about 100 mg/kg at intermittent dosing regimen of 3 cycles of 4 days on/3 days off (4/3) and 3 days on/4 days off (3/4) and compared with a lower continuous dose (e.g., 60 mg/kg). Tumor volume change was plotted in FIG. 1G and corresponding change in body weight in FIG. 1H until about 24 days post-initiation of treatment.

[4] = test system: human ovarian cancer OVCAR3; test: Human ovarian cancer OVCAR3 model, tumor volume; format: in vivo
Procedure: In an exemplary human ovarian cancer OVCAR3 model, Azenosertib was administered at a dose of about 100 mg/kg at intermittent dosing regimen of 3 cycles of 7 days on/7 days off (7/7). Tumor volume change was plotted in FIG. 1I and corresponding change in body weight in FIG. 1J until about 32 days post-initiation of treatment.
In an exemplary human ovarian cancer OVCAR3 model, Azenosertib was administered based on an intermittent dosing regimen of 5 days on/2 days off (5/2) for a once daily dose (as compared to a twice daily dose (e.g., 80 mg/kg once daily vs. 40 mg/kg twice daily and 100 mg/kg once daily vs. 50 mg/kg twice daily).
Tumor volume was measured as shown in FIG. 2A and corresponding changes in body weight are shown in FIG. 2B until about 22 days post initiation of treatment.
In an exemplary human ovarian cancer OVCAR3 model, Azenosertib was administered at two different doses in each of two intermittent dosing regimen. Briefly, Azenosertib was administered 5 cycles of a 5 days on/2 days off (5/2) intermittent regimen at a dose of about 80 mg/kg (cumulative dose of 400 mg) and 90 mg/kg (cumulative dose of 450 mg) and also 4 cycles of a 4 days on/3 days off (4/3) intermittent regimen at 90 mg/kg (cumulative dose of 450 mg) and 100 mg/kg (cumulative dose of 500 mg). The results were compared with a continuous dose of 60 mg/kg for 22 days (cumulative dose of 300 mg).
Changes in tumor volume are shown in FIG. 2C and corresponding change in body weight in FIG. 2D until about 24 days post-initiation of treatment.
In an exemplary human ovarian cancer OVCAR3 model, Azenosertib was administered at 100 mg/kg in 3 cycles each of two intermittent dosing regimen, 4 days on/3 days off (4/3) or 3 days on/4 days off (3/4). Further, a continuous dosing of 60 mg/kg was administered for 24 days.
At a dose of 3 cycles of about 100 mg/kg for 4/3, the cumulative dose was 1200 mg, while at a dose of 3 cycles of about 100 mg/kg for 3/4, the cumulative dose was 900 mg.
Azenosertib and the PARPi, talazoparib, were evaluated using OVCAR-3 models on an intermittent dosing schedule. […] In addition, the alternating dosing schedule may potentially abrogate overlapping toxicity with WEE1 inhibitor and PARPi coadministration.
In an exemplary human ovarian cancer OVCAR3 animal model, Azenosertib was administered at an intermittent dosing of 60 mg/kg or 80 mg/kg at 3 cycles of 5 days on/2 days off, while Paclitaxel and Carboplatin were also each administered at respectively 20 mg/kg and 25 mg/kg, once a week, for 3 weeks In addition, the combinations of Azenosertib and Paclitaxel and of Azenosertib and Carboplatin were administered in accordance with the same dosing regimens and doses as their respective monotherapies.

C=CCn1c(=O)c2cnc(Nc3ccc(N4CCN(C)CC4)cc3)nc2n1-c1ccc2c(n1)[C@@](O)(CC)CC2 [Azenosertib, (R)-2-allyl-1-(7-ethyl-7-hydroxy-6,7-dihydro-5H-cyclopenta[b]pyridin-2-yl)-6-((4-(4-methylpiperazin-1-yl)phenyl)amino)-1,2-dihydro-3H-pyrazolo[3,4-d]pyrimidin-3-one]
change in tumor volume, intermittent vs continuous dosing [1]: more efficacious; also recorded: higher efficacy than continuous dosing in reducing tumor volume
tumor volume, intermittent vs continuous dosing ([2]; 100 mg/kg 4 cycles 4 days on/3 days off vs continuous 60 mg/kg, 25 days): more efficacious; also recorded: slightly more efficacy than lower continuous dosing
tumor volume, intermittent vs continuous dosing ([2]; 56 or 112 mg/kg 4 cycles 5 days on/2 days off vs continuous 40 or 80 mg/kg, same total cumulative dose, 28 days): more efficacious; also recorded: more efficacy in reducing tumor volume than lower continuous dosing
tolerability (body weight) ([2]; all doses (40, 80 mg/kg continuous; 56, 112 mg/kg 5/2)): well tolerated
tumor volume, intermittent vs continuous dosing ([3]; about 100 mg/kg 3 cycles 4/3 and 3/4 vs continuous 60 mg/kg, about 24 days): more efficacious
efficacy of 4 days on/3 days off vs 3 days on/4 days off ([3]; about 100 mg/kg, 3 cycles): comparable in efficacy
tumor volume, intermittent 4/3 or 3/4 vs continuous dosing ([4]; 100 mg/kg 3 cycles 4/3 or 3/4 vs 60 mg/kg continuous for 24 days): higher efficacy than continuous dosing
efficacy of 4/3 regimen vs 3/4 regimen ([4]; 100 mg/kg, 3 cycles, 4/3 = higher cumulative dose): slightly higher efficacy
tumor volume, once daily vs twice daily dose ([4]; 5/2, 80 mg/kg once daily vs 40 mg/kg twice daily, 100 mg/kg once daily vs 50 mg/kg twice daily, same cumulative dose): more efficacious relative to each twice daily dose; also recorded: more efficacious relative to a twice daily dose
tumor volume, intermittent 5/2 and 4/3 vs continuous dose ([4]; 80, 90 mg/kg 5/2 and 90, 100 mg/kg 4/3 vs 60 mg/kg continuous, about 24 days): more efficacious than the lower continuous dose
tumor volume, 7/7 intermittent dosing regimen ([4]; about 100 mg/kg, 3 cycles of 7 days on/7 days off, about 32 days): effective in reducing tumor volume
